For two molecules, ED50 and MIC results are on record in ChEMBL document CHEMBL1131775, “The synthesis of water soluble prodrugs analogs of echinocandin B” (1999).

≈ marks a conversion by molar mass, not a printed value. Starred links: 1 amine or outer side, 2 acyl side, 3 side chain; linkers in the order of their positions; H or OH if unused. Positions of bridges follow the written chain, without caps; N, C: chain ends. Non-standard residues stand in square brackets, D forms with d. Residues, ends and D or L forms follow the SMILES beside them. *: point of attachment. pTerphenylCO(4''-OnC5H11) = CCCCCOc1ccc(-c2ccc(-c3ccc(C(=O)*)cc3)cc2)cc1; Orn(4R-OH,5R-OH) = O=C([C@H](C[C@@H](O)[C@@H](O)N[*:3])N[*:1])[*:2]; hTyr(3S-OH,4S-OH) = N[C@H](C(=O)O)[C@H](O)[C@@H](O)c1ccc(O)cc1; X1 = COP(=O)(O)Oc1ccc(C[C@@H](O)[C@H](N[*:1])C(=O)[*:2])cc1; Orn(4R-OH) = O=C([C@H](C[C@@H](O)CN[*:3])N[*:1])[*:2]; Pro(3S-OH,4S-Me) = C[C@H]1CN[C@H](C(=O)O)[C@H]1O; Hyp = O=C(O)[C@@H]1C[C@@H](O)CN1

Assay [1] concerns Candida albicans. Briefly: In vitro antifungal activity against candida albicans after intraperitoneal administration of the compound. Conditions: ip. It is filed as functional.
The subject of assay [2] is Candida albicans. The assay is described as follows: In vitro antifungal activity against candida albicans. It is filed as functional.

The term ED50 denotes the dose that gives a 50% effect, or the effect in half of the subjects. The low end stands for greater potency, the high end for weaker potency. The MIC is the lowest concentration that inhibits growth of the organism. Read a low MIC as greater potency. In assay [1], `CCCCCOc1ccc(-c2ccc(-c3ccc(C(=O)N[C@H]4C[C@@H](O)CNC(=O)[C@@H]5[C@@H](O)[C@@H](C)CN5C(=O)[C@H]([C@@H](C)O)NC(=O)[C@H]([C@H](O)Cc5ccc(OP(=O)(O)OC)cc5)NC(=O)[C@@H]5C[C@@H](O)CN5C(=O)[C@H]([C@@H](C)O)NC4=O)cc3)cc2)cc1` ({pTerphenylCO(4''-OnC5H11)}-[Orn(4R-OH)]T[Hyp][X1]T[Pro(3S-OH,4S-Me)]; lactam 1-C) returned an ED50 of 0.47 mg/kg. In assay [2], this molecule returned an MIC of 0.312 µg/mL (≈ 0.26 µM).
For `CCCCCOc1ccc(-c2ccc(-c3ccc(C(=O)N[C@H]4C[C@@H](O)[C@@H](O)NC(=O)[C@@H]5[C@@H](O)[C@@H](C)CN5C(=O)[C@H]([C@@H](C)O)NC(=O)[C@H]([C@H](O)[C@@H](O)c5ccc(O)cc5)NC(=O)[C@@H]5C[C@@H](O)CN5C(=O)[C@H]([C@@H](C)O)NC4=O)cc3)cc2)cc1` [ANIDULAFUNGIN] ({pTerphenylCO(4''-OnC5H11)}-[Orn(4R-OH,5R-OH)]T[Hyp][hTyr(3S-OH,4S-OH)]T[Pro(3S-OH,4S-Me)]; lactam 1-C), in that order: 0.32 mg/kg and 0.01 µg/mL (≈ 0.00877 µM).
